Reference: article PMC3157396, “Molecular Basis for the Recognition of Adenomatous Polyposis Coli by the Discs Large 1 Protein” (PLoS ONE, 2011)
Entries after “also recorded” stand apart in the source; their conditions may differ.

Legend:
[1] = test system: P245Q mutation in PDZ1 of DLG1; details: cited from earlier work
From the text: This residue difference might account for the higher affinity between PDZ2 and APC.

[2] = test system: PDZ1 and PDZ2 domains of PSD-95; details: cited from earlier work
From the text: The 3D structures of the three PDZ domains of DLG1 have been determined in the free forms [13]–[15]. They share very similar structures, and the ligand binding pockets are also conserved. […] The residues in the β2/β3 loop ...

[3] = molecular target: T1, PDZ1 domain of DLG1 (residues 220–310) (Homo sapiens, UniProt Q12959); assay: GST pull-down assay, PDZ1; assay type: binding; details: GST-APC peptide immobilized, 4°C, 25 mM Tris-HCl pH 8.0, 150 mM NaCl, 2 mM DTT, SDS-PAGE, Coomassie Blue
T1 construct: The cDNAs encoding PDZ1 (residues 220–310); His tag (N); made in house; host or cells: E. coli BL21 (DE3)
T1 sequence (Q12959 220-310): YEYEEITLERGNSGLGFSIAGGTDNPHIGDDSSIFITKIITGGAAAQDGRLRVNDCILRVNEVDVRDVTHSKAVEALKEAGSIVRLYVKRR
From the text: (§1) The cDNAs encoding PDZ1 (residues 220–310), PDZ2 (residues 315–410), PDZ3 (462–552), and PDZ1-PDZ2 (residues 220–410) domains of human DLG1 were cloned into pET28a (Novagen)-derived vectors and over-expressed as N-terminal His-tagged proteins. The C-terminal 11 residues of human APC (residues 2833–2843, APC-C11, with sequence […]), the C-terminal 4 residues of human APC (residues 2840–2843, APC-C4, sequence VTSV), and residues 2833–2842 of APC (APC-C10, sequence […]) were cloned into the pGEX4T1 (GE Healthcare) vector to be expressed as N-terminal GST-tagged recombinant proteins.
(§2) All proteins except PDZ1-PDZ2 were over-expressed in E. coli strain BL21 (DE3), and PDZ1-PDZ2 was over-expressed in E. coli strain BL21 (RIL). Cells were cultured at 37°C in LB medium and incubated for 20 hours at 18°C with 0.5 mM isopropyl β-D-1-thiogalactopyranoside (IPTG) on reaching OD600 = 0.6. Cells were harvested by centrifugation and resuspended in the binding buffer (Ni^2+-NTA column binding buffer: 25 mM Tris-HCl, pH 8.0, 300 mM NaCl, and 20 mM imidazole; GST column binding buffer: 25 mM Tris-HCl, pH 8.0, 150 mM NaCl, and 2 mM DTT). The cells were lysed by sonication, followed by centrifugation. Supernatants of the cells lysates were purified by Ni^2+-NTA affinity chromatography (Qiagen) or GST affinity chromatography (GE Healthcare). PDZ1, PDZ2, PDZ3, and PDZ1-PDZ2 proteins were then purified by Superdex 200 gel filtration chromatography equilibrated with a buffer containing 20 mM Tris-HCl, pH 8.0, 100 mM NaCl, and 2 mM DTT.
(§3) GST pull-down assays between wild-type (WT) or mutant APC peptides and WT or mutant PDZ domain proteins were performed according to standard procedures. […] The bound proteins were eluted with the GST column elution buffer (50 mM Tris-HCl, pH 8.0, 150 mM NaCl, and 7 mM glutathione), and then analyzed by SDS-PAGE and Coomassie Blue staining.

[4] = molecular target: T2, PDZ2 domain of DLG1 (residues 315–410) (Homo sapiens, UniProt Q12959); assay: GST pull-down assay, PDZ2; assay type: binding; details: for binding in GST pull-down (in words): PDZ2 (WT), GST-APC peptide immobilized, 4°C, 25 mM Tris-HCl pH 8.0, 150 mM NaCl, 2 mM DTT, SDS-PAGE, Coomassie Blue
T2 construct: PDZ2 (residues 315–410); His tag (N); made in house; host or cells: E. coli BL21 (DE3)
T2 sequence (Q12959 315-410): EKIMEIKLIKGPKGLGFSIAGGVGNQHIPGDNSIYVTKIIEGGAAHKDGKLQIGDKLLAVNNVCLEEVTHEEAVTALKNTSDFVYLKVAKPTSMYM
From the text: as §1, §2, §3

[5] = molecular target: T1, PDZ1 domain of DLG1 (residues 220–310); assay: ITC, PDZ1 titrated into GST-tagged APC peptides; assay type: binding; details: 25°C, 50 mM HEPES pH 7.5, 100 mM NaCl
From the text: as §1, §2
(§4) Isothermal titration calorimetry (ITC) experiments were performed using an ITC200 system (GE Healthcare) at 25°C. The buffer contained 50 mM HEPES, pH 7.5, and 100 mM NaCl. Proteins were centrifuged and degassed before the experiment. Typically, a WT or mutant DLG1 PDZ domain protein (400 µM) was injected 20 times in 2 µl aliquots into a 300 µl sample cell containing GST-tagged APC-C11 or APC-C4 protein (40 µM). Data were fit with a nonlinear least-square routine using a single site binding model with Origin for ITC version 7.0 (MicroCal), varying the stoichiometry (n), the enthalpy of the reaction (ΔH), and the association constant (K a).

[6] = molecular target: T2, PDZ2 domain of DLG1 (residues 315–410); assay: ITC, PDZ2 titrated into GST-tagged APC peptides; assay type: binding; details: 25°C, 50 mM HEPES pH 7.5, 100 mM NaCl
From the text: as §1, §2, §4

[7] = molecular target: T3, PDZ3 domain of DLG1 (Homo sapiens, UniProt Q12959); assay: ITC, PDZ3 titrated into GST-APC-C11; assay type: binding; details: 25°C, 50 mM HEPES pH 7.5, 100 mM NaCl
T3 construct: PDZ3 (462–552); His tag (N); made in house; host or cells: E. coli BL21 (DE3)
T3 sequence (Q12959 462-552): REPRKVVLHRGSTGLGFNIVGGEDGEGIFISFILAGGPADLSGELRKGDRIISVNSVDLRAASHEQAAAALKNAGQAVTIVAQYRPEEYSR
From the text: as §1
as §2, with “PDZ1, PDZ2, PDZ3, and PDZ1-PDZ2 proteins were then purified by Superdex 200 gel filtration chromatography equilibrated with a buffer containing 20 mM Tris-HCl, pH 8.0, 100 mM NaCl, and 2 mM DTT.” left out

[8] = molecular target: T4, PDZ2 Δ339–346 (DLG1) (Homo sapiens, UniProt Q12959, DEL339-346); assay: ITC, PDZ2 Δ339–346 titrated into GST-APC-C11; assay type: binding; details: 25°C, 50 mM HEPES pH 7.5, 100 mM NaCl
T4 construct: PDZ2 (residues 315–410); His tag (N); made in house; host or cells: E. coli BL21 (DE3)
T4 sequence (Q12959 with tags, fused parts or gaps DEL339-346): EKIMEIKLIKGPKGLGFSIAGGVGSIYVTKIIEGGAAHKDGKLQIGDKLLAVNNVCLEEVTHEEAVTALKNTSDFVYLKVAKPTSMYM
From the text: (§5) The 3D structures of the three PDZ domains of DLG1 have been determined in the free forms [13]–[15]. They share very similar structures, and the ligand binding pockets are also conserved. […] The residues in the β2/β3 loops of PDZ domains in other proteins have also been implicated in determining their target ligand binding affinities, [18]. In order to know whether the β2/β3 loop also plays an important role in the interaction between APC and DLG1, we created a similar mutant of PDZ2 deleting residues 339–346.
as §1
Isothermal titration calorimetry (ITC) experiments were performed using an ITC200 system (GE Healthcare) at 25°C. The buffer contained 50 mM HEPES, pH 7.5, and 100 mM NaCl. Proteins were centrifuged and degassed before the experiment. […]

[9] = molecular target: T5, PDZ2 Q340P (DLG1) (Homo sapiens, UniProt Q12959, Q340P); assay: ITC, PDZ2 Q340P titrated into GST-APC-C11; assay type: binding; details: 25°C, 50 mM HEPES pH 7.5, 100 mM NaCl
T5 construct: PDZ2 (residues 315–410); His tag (N); made in house; host or cells: E. coli BL21 (DE3)
T5 sequence (Q12959 315-410 Q340P): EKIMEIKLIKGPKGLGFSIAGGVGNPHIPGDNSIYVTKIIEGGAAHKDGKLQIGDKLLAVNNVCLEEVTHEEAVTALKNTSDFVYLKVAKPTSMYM
From the text: as §1, §4

[10] = test system: PDZ1-PDZ2 of DLG1 (residues 220–410); assay: GST pull-down assay, PDZ1-PDZ2; assay type: binding, human; details: GST-APC peptide immobilized, 4°C, 25 mM Tris-HCl pH 8.0, 150 mM NaCl, 2 mM DTT, SDS-PAGE, Coomassie Blue
From the text: as §1
All proteins except PDZ1-PDZ2 were over-expressed in E. coli strain BL21 (DE3), and PDZ1-PDZ2 was over-expressed in E. coli strain BL21 (RIL). Cells were cultured at 37°C in LB medium and incubated for 20 hours at 18°C with 0.5 mM isopropyl β-D-1-thiogalactopyranoside (IPTG) on reaching OD600 = 0.6. […]
as §3

[11] = molecular target: T4, PDZ2 Δ339–346 (DLG1); assay: GST pull-down assay, PDZ2 Δ339–346; assay type: binding; details: PDZ2 Δ339–346 vs WT PDZ2; GST-APC-C11 immobilized, 4°C; 25 mM Tris-HCl pH 8.0, 150 mM NaCl, 2 mM DTT
From the text: as §5, §1
GST pull-down assays between wild-type (WT) or mutant APC peptides and WT or mutant PDZ domain proteins were performed according to standard procedures. […]

[12] = molecular target: T5, PDZ2 Q340P (DLG1); assay: GST pull-down assay, PDZ2 Q340P; assay type: binding; details: PDZ2 Q340P vs WT PDZ2; GST-APC-C11 immobilized, 4°C; 25 mM Tris-HCl pH 8.0, 150 mM NaCl, 2 mM DTT
From the text: as §1, §3

NR2B: NR2B subunit of NMDA receptors
fold increase in binding affinity for NR2B [1]: 2 fold | change of binding affinity on deletion of six residues from the β2/β3 loops (in words) [2]: decreases the binding affinity

RHSGSYLVTS [APC-C10]
binding in GST pull-down (in words) [3]: no interaction could be observed | binding in GST pull-down (in words) [4]: no interaction could be observed

RHSGSYLVTSV [APC-C11]
DLG/APC ratio ([5]; 400 µM PDZ1 into 40 µM GST-tagged APC peptide, single site binding model): 0.918±0.127 | TΔS ([5]; PDZ1 into GST-tagged APC peptide): 2.44 kcal/mol | ΔH ([5]; PDZ1 into GST-tagged APC peptide, negative = exothermic): -4.02 ± 0.82 kcal/mol | DLG/APC ratio ([6]; 400 µM PDZ2 into 40 µM GST-tagged APC peptide, single site binding model): 0.916±0.018 | TΔS ([6]; PDZ2 into GST-tagged APC peptide): 1.07 kcal/mol | ΔH ([6]; PDZ2 into GST-tagged APC peptide, negative = exothermic): -7.09 ± 0.19 kcal/mol | interaction / heat of reaction by ITC (in words) [7]: no detectable interaction was observed | interaction / heat of reaction by ITC (in words) [8]: no detectable heat of reaction | interaction / heat of reaction by ITC (in words) ([8]; listed as GST-APC-C11): no detectable interaction was observed | DLG/APC ratio ([9]; 400 µM PDZ2 Q340P into 40 µM GST-APC-C11, single site binding model): 1.04±0.03 | TΔS ([9]; PDZ2 Q340P into GST-APC-C11): 0.0793 kcal/mol | ΔH ([9]; PDZ2 Q340P into GST-APC-C11, negative = exothermic): -6.76 ± 0.27 kcal/mol | binding in GST pull-down (in words) [3]: somewhat weaker, but detectable binding | binding in GST pull-down (in words) [4]: stronger than that between PDZ1 and APC-C11 | binding in GST pull-down (in words) ([4]; listed as GST-APC-C11): bound most strongly | binding in GST pull-down in crystallization-like buffer (in words) ([4]; PDZ2, buffer similar to the condition in which PDZ2/APC-C11 crystallized, data not shown): weaker than that between PDZ1 and APC-C11 | binding in GST pull-down (in words) [10]: bound most strongly | binding in GST pull-down (in words) [11]: significantly decreases the interaction; also recorded: dramatically decreased the interaction | binding in GST pull-down (in words) [12]: greatly diminished the association; also recorded: substantially weaker interaction

VTSV [APC-C4]
interaction / heat of reaction by ITC (in words) ([5]; PDZ1, listed as GST-APC-C4): no detectable heat of reaction; also recorded: no detectable interaction was observed | interaction / heat of reaction by ITC (in words) ([6]; PDZ2, listed as GST-APC-C4): no detectable heat of reaction; also recorded: no detectable interaction was observed | binding in GST pull-down (in words) [3]: significantly weaker compared to GST-APC-C11 | binding in GST pull-down (in words) [4]: significantly weaker compared to GST-APC-C11 | binding in GST pull-down (in words) [10]: significantly weaker compared to GST-APC-C11
